According to ChEMBL document CHEMBL3044738, “Synthesis of analogues of antihyperglycemic lead karanjin” (2011):

Experiments:
Rattus norvegicus [1] = experiment: Antihyperglycemic activity in albino Rattus norvegicus Sprague-Dawley (rat) streptozotocin-induced diabetic model assessed as effect on AUC of blood glucose level at 100 mg/kg, po after 5 hr; format: functional
Rattus norvegicus [2] = experiment: Antihyperglycemic activity in albino Rattus norvegicus Sprague-Dawley (rat) streptozotocin-induced diabetic model assessed as effect on AUC of blood glucose level at 100 mg/kg, po after 24 hr; format: functional

SMILES | Activity (Rattus norvegicus [1]) [%] | Activity (Rattus norvegicus [2]) [%]
CC(C)Oc1c(-c2ccccc2)oc2c(ccc3occc32)c1=O [3-O-ISOPROPYLKARANJONOL] | -26.9 | -15.4
O=C(COc1c(-c2ccccc2)oc2c(ccc3occc32)c1=O)c1ccccc1 [3-O-(2-OXO-2-PHENYL-ETHYL)-KARANJONOL] | 15.4 | 22.9
CC(=O)OC[C@H]1O[C@@H](Oc2c(-c3ccccc3)oc3c(ccc4occc43)c2=O)[C@H](OC(C)=O)[C@@H](OC(C)=O)[C@@H]1OC(C)=O [3-OTETRAACETYLGLUCOPYRANOSYLKARANJONOL] | 9.7 | 0.5
C=CCOc1c(-c2ccccc2)oc2c(ccc3occc32)c1=O [3-O-ALLYLKARANJONOL] | -33 | -16.6
COc1c(-c2ccccc2)oc2c3c(ccc2c1=O)OCC3 [2',3'-DIHYDROKARANJIN] | 6.2 | 9.8
COc1c(-c2ccccc2)oc2c(ccc3occc32)c1=O [KARANJIN] | -30.8 | -42.6
CCN(CC)CC(O)COc1c(-c2ccccc2)oc2c(ccc3occc32)c1=O (stereo not given) [3-(3-DIETHYLAMINO-2-HYDROXY-PROPYL)-KARANJONOL] | -4.8 | -37
O=c1c(O)c(-c2ccccc2)oc2c3c(ccc12)OCC3 [2',3'-DIHYDROKARANJONOL] | 7 | 5.3
CN(C)C(=N)NC(=N)N [METFORMIN] | -26.7 | 25
O=c1c(O)c(-c2ccccc2)oc2c1ccc1occc12 [KARANJONOL] | -37.2 | -39
